Format in all cases: functional
Test [1] relates to Staphylococcus aureus. Briefly: Antibacterial activity against penicillin G resistance Staphylococcus aureus. As to conditions: Staphylococcus aureus; read-out: MIC.
In test [2] the test system is Pseudomonas aeruginosa. Nature of the test: Antibacterial activity against Pseudomonas aeruginosa X528. As to conditions: Pseudomonas aeruginosa; read-out: MIC.
Test [3] deals with Klebsiella pneumoniae. Briefly: microbe, parasite or virus in culture. As to conditions: Klebsiella pneumoniae; read-out: MIC.
Description: Antibacterial activity against Klebsiella pneumoniae 1082E
The next test concerns Serratia marcescens. Briefly: Antibacterial activity against Serratia marcescens SE3. The following applies: Serratia marcescens; read-out: MIC.
Test [4] relates to Klebsiella pneumoniae. Briefly: Antibacterial activity against Klebsiella pneumoniae X26. As to conditions: Klebsiella pneumoniae; read-out: MIC.
The test system of test [5] is Escherichia coli. Briefly: Antibacterial activity against Escherichia coli TEM. As to conditions: Escherichia coli; read-out: MIC.
A further test relates to Enterococcus faecium. Nature of the test: Antibacterial activity against Enterococcus faecium. The following applies: Enterococcus faecium; read-out: MIC.
The test system of test [6] is Staphylococcus aureus. Briefly: Antibacterial activity against penicillin G susceptible Staphylococcus aureus. The following applies: Staphylococcus aureus; read-out: MIC.
The test system of test [7] is Escherichia coli. Briefly: Antibacterial activity against Escherichia coli EC14. As to conditions: Escherichia coli; read-out: MIC.
The subject of test [8] is Enterobacter cloacae. Nature of the test: Antibacterial activity against Enterobacter cloacae EB5. As to conditions: Enterobacter cloacae; read-out: MIC.
Test [9] deals with Pseudomonas aeruginosa. Nature of the test: Antibacterial activity against Pseudomonas aeruginosa PS18. As to conditions: Pseudomonas aeruginosa; read-out: MIC.
Another test deals with Streptococcus pneumoniae. Briefly: Antibacterial activity against Streptococcus pneumoniae.
Test [10] relates to Enterobacter cloacae. Briefly: Antibacterial activity against Enterobacter cloacae 265A. The following applies: Enterobacter cloacae; read-out: MIC.
A further test has as its system Streptococcus pyogenes. Briefly: Antibacterial activity against Streptococcus pyogenes.
The test system of test [11] is Staphylococcus aureus. Briefly: In vivo efficacy against Staphylococcus aureus infected mice treated at 1 hr and 5 hr post infection.
Test [12] deals with Pseudomonas aeruginosa. Briefly: In vivo efficacy against Pseudomonas aeruginosa infected mice treated at 1 hr and 5 hr post infection.
Test [13] relates to Escherichia coli. Briefly: In vivo efficacy against Escherichia coli infected mice treated at 1 hr and 5 hr post infection.
[14] abbreviates: Streptococcus pneumoniae, read-out: MIC.
[15] abbreviates: Streptococcus pyogenes, read-out: MIC.

The structures appear in SMILES notation. Converted amounts (≈) assume the structure as drawn. A value given as a limit tells only on which side of the number the result lay.

By ED50 is commonly meant the dose that gives a 50% effect, or the effect in half of the subjects. Low readings indicate an effect at a small dose, high ones a need for a large dose.

Regarding `CO/N=C(\C(=O)N[C@@H]1C(=O)N2C(C(=O)[O-])=C(C[n+]3ccc4cncnc4c3)CS[C@H]12)c1csc(N)n1`, the MIC with Staphylococcus aureus [1] is 32 µg/mL (≈ 60.8 µM); in the test on Pseudomonas aeruginosa [2], 32 µg/mL (≈ 60.8 µM); in the test with Klebsiella pneumoniae [3], 16 µg/mL (≈ 30.4 µM); in the test on Serratia marcescens, 1 µg/mL (≈ 1.9 µM); in the test with Klebsiella pneumoniae [4] it was 0.125 µg/mL (≈ 0.237 µM); in the test on Escherichia coli [5] it was 0.125 µg/mL (≈ 0.237 µM). In addition, the MIC came to 128 µg/mL (≈ 243 µM) in the test on Enterococcus faecium; 4 µg/mL (≈ 7.6 µM) in the test with Staphylococcus aureus [6]; 0.25 µg/mL (≈ 0.475 µM) in the test with Escherichia coli [7]; 1 µg/mL (≈ 1.9 µM) in the test with Enterobacter cloacae [8]; 64 µg/mL (≈ 122 µM) in the test on Pseudomonas aeruginosa [9]; 0.03 µg/mL (≈ 0.057 µM) in the test with Streptococcus pneumoniae (setting [14]). Besides, the MIC with Enterobacter cloacae [10] turned out to be 16 µg/mL (≈ 30.4 µM); in the test on Streptococcus pyogenes (setting [15]), 0.06 µg/mL (≈ 0.114 µM).

Take `CO/N=C(\C(=O)N[C@@H]1C(=O)N2C(C(=O)[O-])=C(C[n+]3ccc4scc(C(=O)O)c4c3)CS[C@H]12)c1csc(N)n1`: the MIC in the test with Staphylococcus aureus [1] came to 16 µg/mL (≈ 27.8 µM); with Pseudomonas aeruginosa [2] it was 4 µg/mL (≈ 6.96 µM); with Klebsiella pneumoniae [3], 4 µg/mL (≈ 6.96 µM); in the test on Serratia marcescens, 0.03 µg/mL (≈ 0.0522 µM); in the test on Klebsiella pneumoniae [4], 0.015 µg/mL (≈ 0.0261 µM); in the test on Escherichia coli [5], 0.06 µg/mL (≈ 0.104 µM). The MIC was > 128 µg/mL in the test on Enterococcus faecium; 2 µg/mL (≈ 3.48 µM) in the test on Staphylococcus aureus [6]; 0.015 µg/mL (≈ 0.0261 µM) in the test with Escherichia coli [7]; 0.125 µg/mL (≈ 0.218 µM) in the test on Enterobacter cloacae [8]; 16 µg/mL (≈ 27.8 µM) in the test with Pseudomonas aeruginosa [9]; 0.015 µg/mL (≈ 0.0261 µM) with Streptococcus pneumoniae (setting [14]). The MIC was determined as 32 µg/mL (≈ 55.7 µM) with Enterobacter cloacae [10] and 0.03 µg/mL (≈ 0.0522 µM) in the test with Streptococcus pyogenes (setting [15]).

Regarding `CO/N=C(\C(=O)N[C@@H]1C(=O)N2C(C(=O)[O-])=C(C[n+]3csc4c3CCC4)CS[C@H]12)c1csc(N)n1`, the MIC turned out to be 4 µg/mL (≈ 7.68 µM) in the test on Staphylococcus aureus [1]; 8 µg/mL (≈ 15.4 µM) in the test on Pseudomonas aeruginosa [2]; 4 µg/mL (≈ 7.68 µM) in the test on Klebsiella pneumoniae [3]; 0.125 µg/mL (≈ 0.24 µM) in the test with Serratia marcescens; 0.06 µg/mL (≈ 0.115 µM) in the test with Klebsiella pneumoniae [4]; 0.06 µg/mL (≈ 0.115 µM) in the test on Escherichia coli [5]. The MIC with Enterococcus faecium is 32 µg/mL (≈ 61.5 µM); in the test with Staphylococcus aureus [6] it was 2 µg/mL (≈ 3.84 µM); with Escherichia coli [7], 0.06 µg/mL (≈ 0.115 µM); in the test with Enterobacter cloacae [8], 0.25 µg/mL (≈ 0.48 µM); with Pseudomonas aeruginosa [9], 32 µg/mL (≈ 61.5 µM); in the test with Streptococcus pneumoniae (setting [14]), 0.06 µg/mL (≈ 0.115 µM). For the same compound, the MIC came out at 4 µg/mL (≈ 7.68 µM) with Enterobacter cloacae [10] and 0.06 µg/mL (≈ 0.115 µM) in the test on Streptococcus pyogenes (setting [15]).

With `CO/N=C(\C(=O)N[C@@H]1C(=O)N2C(C(=O)[O-])=C(C[n+]3cc(C)c4ccccc4c3)CS[C@H]12)c1csc(N)n1`, the MIC was 2 µg/mL (≈ 3.71 µM) with Staphylococcus aureus [1]; 4 µg/mL (≈ 7.43 µM) in the test with Pseudomonas aeruginosa [2]; 8 µg/mL (≈ 14.9 µM) with Klebsiella pneumoniae [3]; 0.25 µg/mL (≈ 0.464 µM) in the test with Serratia marcescens; 0.015 µg/mL (≈ 0.0278 µM) in the test on Klebsiella pneumoniae [4]; 0.03 µg/mL (≈ 0.0557 µM) in the test on Escherichia coli [5]. The MIC with Enterococcus faecium was > 128 µg/mL; in the test on Staphylococcus aureus [6] it was 1 µg/mL (≈ 1.86 µM); in the test with Escherichia coli [7] it was 0.06 µg/mL (≈ 0.111 µM); in the test with Enterobacter cloacae [8], 0.25 µg/mL (≈ 0.464 µM); in the test on Pseudomonas aeruginosa [9], 16 µg/mL (≈ 29.7 µM); in the test with Streptococcus pneumoniae (setting [14]), < 0.008 µg/mL. The MIC in the test on Enterobacter cloacae [10] was 2 µg/mL (≈ 3.71 µM); in the test with Streptococcus pyogenes (setting [15]), < 0.008 µg/mL.

Regarding `CO/N=C(\C(=O)N[C@@H]1C(=O)N2C(C(=O)[O-])=C(C[n+]3ccc4c(S(=O)(=O)O)cccc4c3)CS[C@H]12)c1csc(N)n1`, the MIC in the test on Staphylococcus aureus [1] was determined as 8 µg/mL (≈ 13.2 µM); in the test on Pseudomonas aeruginosa [2] it was 32 µg/mL (≈ 52.9 µM); in the test on Klebsiella pneumoniae [3] it was 32 µg/mL (≈ 52.9 µM); in the test on Serratia marcescens, 0.25 µg/mL (≈ 0.413 µM); in the test with Klebsiella pneumoniae [4], 0.03 µg/mL (≈ 0.0496 µM); in the test on Escherichia coli [5], 0.03 µg/mL (≈ 0.0496 µM). Also, the MIC was > 128 µg/mL in the test with Enterococcus faecium; 4 µg/mL (≈ 6.62 µM) with Staphylococcus aureus [6]; 0.015 µg/mL (≈ 0.0248 µM) in the test with Escherichia coli [7]; 0.25 µg/mL (≈ 0.413 µM) in the test with Enterobacter cloacae [8]; 16 µg/mL (≈ 26.5 µM) in the test with Pseudomonas aeruginosa [9]; 0.015 µg/mL (≈ 0.0248 µM) in the test on Streptococcus pneumoniae (setting [14]). The values for the MIC in the test with Enterobacter cloacae [10] and with Streptococcus pyogenes were 64 µg/mL (≈ 106 µM) and 0.015 µg/mL (≈ 0.0248 µM), respectively.

Take `CO/N=C(\C(=O)N[C@@H]1C(=O)N2C(C(=O)[O-])=C(C[n+]3ccc4sc(N)cc4c3)CS[C@H]12)c1csc(N)n1`: the MIC in the test with Staphylococcus aureus [1] is 4 µg/mL (≈ 7.33 µM); in the test on Pseudomonas aeruginosa [2], 1 µg/mL (≈ 1.83 µM); in the test on Klebsiella pneumoniae [3], 2 µg/mL (≈ 3.67 µM); in the test on Serratia marcescens, 0.06 µg/mL (≈ 0.11 µM); with Klebsiella pneumoniae [4], < 0.008 µg/mL; in the test on Escherichia coli [5] it was 0.03 µg/mL (≈ 0.055 µM). The MIC in the test on Enterococcus faecium was > 128 µg/mL; in the test on Staphylococcus aureus [6] it was 0.5 µg/mL (≈ 0.916 µM); in the test with Escherichia coli [7], 0.015 µg/mL (≈ 0.0275 µM); in the test on Enterobacter cloacae [8], 0.06 µg/mL (≈ 0.11 µM); in the test with Pseudomonas aeruginosa [9], 4 µg/mL (≈ 7.33 µM); with Streptococcus pneumoniae (setting [14]), < 0.008 µg/mL. In addition, the MIC in the test on Enterobacter cloacae [10] was 8 µg/mL (≈ 14.7 µM); with Streptococcus pyogenes (setting [15]), 0.015 µg/mL (≈ 0.0275 µM).

`CO/N=C(\C(=O)N[C@@H]1C(=O)N2C(C(=O)[O-])=C(C[n+]3ccc(CC(=O)NO)cc3)CS[C@H]12)c1csc(N)n1` (stereo in doubt; 7): the 50% effective dose (ED50) in the test with Staphylococcus aureus [11] came out at 1.5 mg/kg; with Pseudomonas aeruginosa [12], 19.6 mg/kg; in the test with Escherichia coli [13] it was 0.04 mg/kg. Further, the MIC against Streptococcus pneumoniae amounted to 0.015 µg/mL (≈ 0.0274 µM).

Values taken from ChEMBL document CHEMBL1124865, “Synthesis and biological evaluation of a series of parenteral 3'-quaternary ammonium cephalosporins” (J Med Chem, 1990).
